The target of this assay is human Factor XIa (Homo sapiens (Human), UniProt P03951). Nature of the assay: Factor XIa Assay. It counts as biochemical. Conditions: for IC50: human Factor XIa 0.04 nM, 30 min pre-incubation at 25° C., substrate GPR-AFC, read-out: FXIa IC50; for inhibition at 1 µM: read-out: FXIa % Inh. @ 1000 nM. As to the method:
The effectiveness of a compound of the present invention as an inhibitor of Coagulation Factor XIa can be determined using a relevant purified serine protease, and an appropriate synthetic substrate. The rate of hydrolysis of the chromogenic or fluorogenic substrate by the relevant serine protease was measured both in the absence and presence of compounds of the present invention. Assays were conducted at room temperature or at 37° C. […] A decrease in the rate of fluorescence change in the presence of inhibitor is indicative of enzyme inhibition. Such methods are known to one skilled in the art. The results of this assay are expressed as the half-maximal inhibitory concentrations (IC50), or the inhibitory constant, Ki.
Compounds were pre-incubated for 30 minutes at 25° C. with human (0.04 nM) Factor XIa in 50 mM HEPES buffer with 150 mM sodium chloride, 5 mM calcium chloride, 0.1% PEG 8000, pH 7.4. Factor XIa enzymatic activity was determined by addition of the substrate glycine-proline-arginine-7-amido-4-trifluoromethylcoumarin (GPR-AFC) and measurement of the fluorescence at 400/505 nm after a 60 minute incubation at 25° C. The % inhibition for each data point was calculated from the data and analyzed using the log (inhibitor) vs. response four parameters equation to determine the half-maximal inhibitory concentrations (IC50). The IC50 were converted to equilibrium inhibitory constants (Ki) using the Cheng-Prusoff equation.

Molecules are shown by their SMILES.

Chain of human Factor XIa (P03951 388-625): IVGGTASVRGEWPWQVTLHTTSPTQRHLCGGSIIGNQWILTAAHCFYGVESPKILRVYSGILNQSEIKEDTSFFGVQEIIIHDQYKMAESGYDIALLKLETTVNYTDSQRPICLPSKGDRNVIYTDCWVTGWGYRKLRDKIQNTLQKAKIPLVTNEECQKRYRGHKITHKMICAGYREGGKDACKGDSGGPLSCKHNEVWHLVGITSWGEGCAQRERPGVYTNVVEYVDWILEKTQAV
Chain of human Factor XIa (P03951 19-387 partner): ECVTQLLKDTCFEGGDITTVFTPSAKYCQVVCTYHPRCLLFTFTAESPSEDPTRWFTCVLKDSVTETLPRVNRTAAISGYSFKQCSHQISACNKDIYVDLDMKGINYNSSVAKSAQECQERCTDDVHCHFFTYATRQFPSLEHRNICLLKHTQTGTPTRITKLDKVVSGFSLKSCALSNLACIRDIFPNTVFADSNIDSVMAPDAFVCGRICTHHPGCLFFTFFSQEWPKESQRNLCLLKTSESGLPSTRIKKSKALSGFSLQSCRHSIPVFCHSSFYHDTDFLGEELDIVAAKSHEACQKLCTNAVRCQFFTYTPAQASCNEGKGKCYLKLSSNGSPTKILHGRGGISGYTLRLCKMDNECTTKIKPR

Take `O=C(O)c1ccc(NC(=O)C(CC2CC2C(F)(F)F)c2ccc(-c3c(C(F)F)ccc(Cl)c3F)c[n+]2[O-])cc1` (single isomer, unassigned) [Example 86, 2-(1-((4-carboxyphenyl)amino)-1-oxo-3-(2-(trifluoromethyl)cyclopropyl)propan-2-yl)-5-(3-chloro-6-(difluoromethyl)-2-fluorophenyl)pyridine 1-oxide]: the IC50 (commonly the midpoint of a concentration-inhibition curve) worked out at 93.6 nM. With `O=C(O)c1ccc(NC(=O)C(CC2CC(F)C2)c2ccc(-c3c(OC(F)F)ccc(Cl)c3F)c[n+]2[O-])cc1` (single isomer, unassigned) [Example 101, 2-(1-((4-carboxyphenyl)amino)-3-(3-fluorocyclobutyl)-1-oxopropan-2-yl)-5-(3-chloro-6-(difluoromethoxy)-2-fluorophenyl)pyridine 1-oxide], the inhibition at 1 µM (@ 1000 nM compound) came out at 44%.

Take `CC1CCC1CC(C(=O)Nc1ccc(C(=O)O)cc1)c1ccc(-c2c(OC(F)F)ccc(Cl)c2F)c[n+]1[O-]` (single isomer, unassigned) [Example 103, 2-(1-((4-carboxyphenyl)amino)-3-(2-methylcyclobutyl)-1-oxopropan-2-yl)-5-(3-chloro-6-(difluoromethoxy)-2-fluorophenyl)pyridine 1-oxide]: the IC50 was 153 nM. On to `CC1CCC1CC(C(=O)Nc1ccc(C(=O)O)cc1)c1ccc(-c2c(OC(F)F)ccc(Cl)c2F)c[n+]1[O-]` (single isomer, unassigned) [Example 104, 2-(1-((4-carboxyphenyl)amino)-3-(2-methylcyclobutyl)-1-oxopropan-2-yl)-5-(3-chloro-6-(difluoromethoxy)-2-fluorophenyl)pyridine 1-oxide], for which the IC50 amounted to 1000 nM. Further, the inhibition at 1 µM (@ 1000 nM compound) was 37%.

In the case of `CC1CCC1CC(C(=O)Nc1ccc(C(=O)O)cc1)c1ccc(-c2c(OC(F)F)ccc(Cl)c2F)c[n+]1[O-]` (single isomer, unassigned) [Example 106, 2-(1-((4-carboxyphenyl)amino)-3-(2-methylcyclobutyl)-1-oxopropan-2-yl)-5-(3-chloro-6-(difluoromethoxy)-2-fluorophenyl)pyridine 1-oxide], the IC50 amounted to 3.79 nM. As to `O=C(O)c1ccc(NC(=O)C(CC2CC2C(F)(F)F)c2ccc(-c3c(OC(F)F)ccc(Cl)c3F)c[n+]2[O-])cc1` (single isomer, unassigned) [Example 110, 2-(1-((4-carboxyphenyl)amino)-1-oxo-3-(2-(trifluoromethyl)cyclopropyl)propan-2-yl)-5-(3-chloro-6-(difluoromethoxy)-2-fluorophenyl)pyridine 1-oxide], the inhibition at 1 µM (@ 1000 nM compound) was determined as 29%. For the compound `CC1(C)CC1CC(C(=O)Nc1ccc(C(=O)O)cc1)c1ccc(-c2c(OC(F)F)ccc(Cl)c2F)c[n+]1[O-]` (single isomer, unassigned) [Example 111, 2-(1-((4-carboxyphenyl)amino)-3-(2,2-dimethylcyclopropyl)-1-oxopropan-2-yl)-5-(3-chloro-6-(difluoromethoxy)-2-fluorophenyl)pyridine 1-oxide], the IC50 was found to be 157 nM. On to `COC(=O)c1ccc(NC(=O)C(CC2CC2)c2ccc(-c3c(C(F)F)ccc(Cl)c3F)c[n+]2[O-])cc1` (single isomer, unassigned) [Example 113, 5-(3-chloro-6-(difluoromethyl)-2-fluorophenyl)-2-(3-cyclopropyl-1-((4-(methoxycarbonyl)phenyl)amino)-1-oxopropan-2-yl)pyridine 1-oxide], for which the IC50 is 1000 nM. Besides, where the note is “@ 1000 nM compound”, the “FXIa % Inh. @ 1000 nM” value was found to be 6%. For `CCOC(=O)c1ccc(NC(=O)C(CC2CC2)c2ccc(-c3c(C(F)F)ccc(Cl)c3F)c[n+]2[O-])cc1` (single isomer, unassigned) [Example 115, 5-(3-chloro-6-(difluoromethyl)-2-fluorophenyl)-2-(3-cyclopropyl-1-((4-(ethoxycarbonyl)phenyl)amino)-1-oxopropan-2-yl)pyridine 1-oxide], the inhibition at 1 µM (@ 1000 nM compound) turned out to be 0%. In the case of `O=C(O)c1ccc(NC(=O)C(CC2CC2)c2ccc(-c3c(C(F)F)ccc(Cl)c3F)c[n+]2[O-])cc1F` (single isomer, unassigned) [Example 117, 2-(1-((4-carboxy-3-fluorophenyl)amino)-3-cyclopropyl-1-oxopropan-2-yl)-5-(3-chloro-6-(difluoromethyl)-2-fluorophenyl)pyridine 1-oxide], the IC50 was 58.4 nM. On the same count and under the same terms, the figure for `Cc1cc(NC(=O)C(CC2CC2)c2ccc(-c3c(C(F)F)ccc(Cl)c3F)c[n+]2[O-])ccc1C(=O)O` (single isomer, unassigned) [Example 121, 2-(1-((4-carboxy-3-methylphenyl)amino)-3-cyclopropyl-1-oxopropan-2-yl)-5-(3-chloro-6-(difluoromethyl)-2-fluorophenyl)pyridine 1-oxide] is 620 nM; for `O=C(O)c1ccc(NC(=O)C(CC23CC(C2)C3)c2ccc(-c3c(C(F)F)ccc(Cl)c3F)c[n+]2[O-])cc1F` (single isomer, unassigned) [Example 123, 2-(3-(bicyclo[1.1.1]pentan-1-yl)-1-((4-carboxy-3-fluorophenyl)amino)-1-oxopropan-2-yl)-5-(3-chloro-6-(difluoromethyl)-2-fluorophenyl)pyridine 1-oxide] it is 24.7 nM. Still for that read-out and setting: the figure for `CCOC(=O)c1ccc(NC(=O)[C@H](CC2CCC2)c2ccc(-c3c(C(F)F)ccc(Cl)c3F)c[n+]2[O-])cc1` [Example 5, (R)-5-(3-chloro-6-(difluoromethyl)-2-fluorophenyl)-2-(3-cyclobutyl-1-((4-(ethoxycarbonyl)phenyl)amino)-1-oxopropan-2-yl)pyridine 1-oxide] is 166 nM. In the case of `O=C(O)c1ccc(NC(=O)[C@@H](CC2CC2)c2ccc(-c3c(OCC4CC4)ccc(Cl)c3F)c[n+]2[O-])cc1` [Example 12, (S)-4-[(2-{5-[3-chloro-6-(cyclopropylmethoxy)-2-fluorophenyl]-1-oxidopyridin-2-yl}-3-cyclopropylpropanoyl)amino] benzoic acid], the IC50 is more than 1000 nM. Besides, where the note is “@ 1000 nM compound”, the inhibition at 1 µM turned out to be 35%. For `Cc1cc(C(CC2CC2)C(=O)Nc2ccc(C(=O)O)cc2)[n+]([O-])cc1-c1c(OC(F)F)ccc(Cl)c1F` [Example 66, (S)- and (R)-2-(1-((4-carboxyphenyl)amino)-3-cyclopropyl-1-oxopropan-2-yl)-5-(3-chloro-6-(difluoromethoxy)-2-fluorophenyl)-4-methylpyridine 1-oxide], in that order: more than 1000 nM and 34%. As to `Cc1cc(C(CC2CC2)C(=O)Nc2ccc(C(=O)O)cc2)[n+]([O-])cc1-c1c(OC(F)F)ccc(Cl)c1F` [Example 67, (S)- and (R)-2-(1-((4-carboxyphenyl)amino)-3-cyclopropyl-1-oxopropan-2-yl)-5-(3-chloro-6-(difluoromethoxy)-2-fluorophenyl)-4-methylpyridine 1-oxide], the IC50 is 11 nM.

(Values after patent US10143681B2, “Factor XIa inhibitors” (MERCK SHARP & DOHME CORP., priority 2016, dated 2018).)
